The text below walks through data of patent publication EP1920756A1, “Cosmetic matrix for a preservative-free cosmetic formulation” (SYRIO PHARMA S.P.A., priority 2006, dated 2008).

The conditions of series [1]: in contact with healthy and intact skin; cited from earlier work.
In series [2] the test system is CD80 (B7.1). As to conditions: for CD80 (MFI*): THP-1, 48 hours, corrected by the negative control. The method, then:
(§1) The test consisted in evaluating the pro-sensitising stimulus on human monocytes. It was deemed appropriate to use a cell model to evaluate the immunological reactivity of typical immunological cells (monocytes in this case) exposed for a prolonged time (48h) to the tested product in two different concentrations
(§2) The test was thus performed on a monocytes cell line named THP-1, as such a cell type is highly involved in the immunological responses of skin, which is the target organ of the tested cream. […] Nickel is in fact able to trigger in vivo allergising-type immunological reactions (contact sensitising).
(§3) The technique is based on the fact that the recognition of the antigen by the TCR (T Cell Receptor) of T lymphocytes (signal 1) is not functional to the maturation of an effective immune response, if it doesn't occur at the membrane of an antigen-presenting cell able to provide an additional signal (signal 2 or costimulus) qualitatively necessary for the definition of the response type (humoral, cellular, etc). Both B7.1 and B7.2 (collectively: B7) are membrane glycoproteins which are present on the surface of several antigen-presenting cells (dendritic cells, Langerhans cells, monocytes/macrophages, other cell lines such as keratinocytes) and serve as costimula. In fact, both these molecules are ligands of a glycoprotein named CD28, which are present on the T lymphocyte membrane. The triggering of the ligand/receptor system CD28B7 avoids the T cell apoptosis (i.e. the programmed cell death) and cooperates to sustain their proliferation and differentiation. In the first steps of the "physiological" immune response, B7.2 is expressed constitutively and modulates both the Th1 and Th2 responses.
(§4) An increase in expression of these co-stimulatory molecules on monocytes is thus a signal of activation of an immune response the exposure in consequence of a potentially allergising antigen. Functionally, in fact, the expression of co-stimulatory molecules on this cell type corresponds to the competence acquisition for expressing the antigen in the typical location (skin in this case) in which a contact sensitization occurs in vivo.
(§5) They were subjected to a preliminary cytotoxicity screening on THP-1 cells to determinate the concentration at which the substance could be used in vitro without causing cell death, event which causes false results.
(§6) Cell growth culture medium exposed to the same experimental conditions was used as a negative control. […]
(§7) After exposure, the cells were examined for their viability by staining with Trypan Blue dye and by observing under microscope in a corpuscle-counter chamber, collected, washed in a isotonic buffer (PBS) and then marked with a fluoresceinated anti-B7.1 or B7.2 antibody. After further washings to remove the excess antibody, the cells were feeded in a flux cytofluorimeter (FACS, Fluorescence Activated Cell Sorter, Becton Dickinson, Mountain View, CA) for the MFI (Mean Fluorescence Intensity) evaluation, which was proportional to the number of molecules marked per cell and therefore representative of the expression level of the tested co-stimulatory molecules.
(§8) As control (basal fluorescence), the MFI of both untreated THP-1 cells (apart from washings in PBS) and THP-1 cells reacted with a fluoresceinated monoclonal antibody (such as the anti-B7.1 and anti-B7.2), but of irrelevant specificity (isotype-matched control) was evaluated.

The test system of series [3] is CD86 (B7.2). As to conditions: THP-1, 48 hours, corrected by the negative control. The protocol:
as §1, §2, §3, §4, §5, §6, §7, §8

Series [4] relates to stabilized human keratinocytes (HaCaT cells). Nature of the series: Cytotoxicity evaluation with MTT method (UNI EN ISO 10993-5 rule). Format: cell-based. The method, then: The test consisted in evaluating the cytotoxicity of the moisturizing cream […] aimed to be used on skin or on mucosae following the UNI EN ISO 10993-5 rule concerning the biological evaluation of medical devices. The cytotoxicity test was carried out towards the keratinocyte, the main cell component of skin and mucosae. […] The method is based on the fact that the mitochondrial dehydrogenases of viable cells are able to cleave the tetrazolium ring of MTT, leading to the formation of purple formazane crystals, which are insoluble in water. The crystals are dissolved in acidified isopropanol and the resulting purple solution is measured spectrophotometrically. An increase or decrease in viable cell number results in a concomitant change in the amount of formazan which is forming and can be considered as an indication of the degree of cytotoxicity caused by the exposure to the tested substances. The cell model employed for the in vitro test consisted of stabilized human keratinocytes (HaCaT cells). Cells were cultured in 24-well plates for 24 hours in DMEM + 10% FCS. Fresh culture medium was then added, supplemented with 10% FCS and containing a sample of the product to be tested so as to reach 6 final dilutions ranging from 5 to 0.15 mg/ml. For each sample of the cream […], three replica were performed. Untreated cells were used as negative control, and as positive control cells were treated with a surfactant with known toxicity, i.e. Sodium Lauryl Sulphate briefly referred to as SLS, dissolved in the culture medium in concentrations ranging from 0.5 mg/ml to 0.03 mg/ml. Specifically, samples with SLS amounts equal to 0.5, 0.25, 0.12, 0.06 and 0.03 mg/ml and […] amounts of 5, 2.5, 1.25, 0.6, 0.3, 0.15 mg/ml were prepared. At the end of treatment, the citotoxicity test (MTT) was carried out. The cells were then washed with washing solution (Dulbecco's Phosphate Buffered Saline). After removal of the solution, the MTT-culture medium was added to each well and the cells were incubated at 37°C. At the end of the incubation period, the MTT-culture medium was removed and a MTT solubilizing solution was added to each well. The plate was then stirred on a plate stirrer, while ensuring that all the crystals were dissolved and had formed a homogeneous solution. The absorbance was then read with a chromatometer equipped with a plate reader, by subtracting background reading. The result was expressed as: % cell survival = (OD treated cells × 100)/(OD untreated cells) [formula] […]
A general note: Tetrazolium dyes change colour on reduction, which living cells bring about.

Where “and” joins values, the source holds several entries; their conditions need not be identical. Equal entries are not always repeated. Where two headings read alike, the source gives them in different places.

For the compound `O.O.O.O.O.O.O=S(=O)([O-])[O-].[Ni+2]` [Nickel sulphate, Nickel Sulphate (NiSO46H2O)], the “concentration able to cause an allergic reaction in most of the sensitive subjects” value in series [1] is listed as “above 100 ppm”. Further, the “increase in CD80, with respect to untreated controls” value in series [2] (4 µg/ml, data not shown) is listed as “detectable increase”. The “CD80 (MFI*)” value is 19.85 and 18.33 in series [2] (10 µg/ml); 29.00 and 33.48 in series [2] (20 µg/ml). Besides, the “CD86 (MFI*)” value in series [3] (10 µg/ml) was 37.35 and 33.26; in series [3] (20 µg/ml), 77.12 and 87.92.

`CCCCCCCCCCCCOS(=O)(=O)[O-].[Na+]` [SLS, Sodium Lauryl Sulphate]: the “Cell viability % (vs negative control)” value in series [4] (Dose 0.03 mg/ml, MTT, Sulphate) was 87.6% and 94.7% and 98.5% and 92.7%; in series [4] (Dose 0.06 mg/ml, MTT, Sulphate), 61.0% and 79.6% and 76.7% and 73.9%; in series [4] (Dose 0.12 mg/ml, MTT, Sulphate), 2.5% and 3.9% and 0.2% and 1.9%; in series [4] (Dose 0.25 mg/ml, MTT, Sulphate) it was 2.3% and 2.9% and 0.1% and 1.5%; in series [4] (Dose 0.5 mg/ml, MTT, Sulphate), 2.3% and 2.2% and 0.2% and 1.2%. Moreover, in series [4] (Homo sapiens, read-out: concentration of 50% inhibition of cell growth (IC50), HaCaT, MTT, theoretical value from regression curve of dose-response), the IC50 was determined as 60 mg/L. In addition, in series [4] (MTT, theoretical value from regression curve of dose-response, Sulphate), the “concentration of 50% inhibition of cell growth (IC50)” value is 70 mg/L and 67 mg/L.
